pIC50: −log10 of the molar value.
Target: JMJD2C (Homo sapiens (Human), UniProt Q9H3R0)
Assay: JMJD2C in vitro enzyme inhibition assay (TR-FRET)
Type: biochemical
Conditions: 0.3 nM JMJD2C, 300 nM H3K9me3-biotin peptide, 2 μM alpha-ketoglutaric acid
Source text: This assay determines the ability of a test compound to inhibit Jarid1A, Jarid1B, and JMJD2C demethylase activity. Baculovirus expressed Jarid1A (GenBank Accession #NM_001042603, AA1-1090) was purchased from BPS Bioscience (Cat#50110). Baculovirus expressed Jarid1B (GenBank Accession #NM_006618, AA 2-751) was purchased from BPS Bioscience (Cat #50121) or custom made by MolecularThroughput. Baculovirus-expressed JMJD2C (GenBank Accession #BC143571, AA 2-372) was purchased from BPS Bioscience (Cat#50105).
The ability of test compounds to inhibit the activity of JMJD2C was determined in 384-well plate format under the following reaction conditions: 0.3 nM JMJD2C, 300 nM H3K9me3-biotin labeled peptide (Anaspec cat #64360), 2 μM alpha-ketoglutaric acid in assay buffer of 50 mM HEPES, pH7.3, 0.005% Brij35, 0.5 mM TCEP, 0.2 mg/ml BSA, 50 μM sodium L-ascorbate, and 2 μM ammonium iron(II) sulfate. Reaction product was determined quantitatively by TR-FRET after the addition of detection reagent Phycolink Streptavidin-allophycocyanin (Prozyme) and Europium-anti-di-methylated histone H3 lysine 9 (H3K9me2) antibody (PerkinElmer) in the presence of 5 mM EDTA in LANCE detection buffer (PerkinElmer) at a final concentration of 50 nM and 1 nM, respectively.
The reaction mixture was incubated at room temperature for 30 min, and terminated by the addition of 6 μl of 5 mM EDTA in LANCE detection buffer containing 100 nM Phycolink Streptavidin-allophycocyanin and 2 nM Europium-anti-H3K9me2 antibody. Plates were read by EnVisionMultilabel Reader in TR-FRET mode (excitation at 320 nm, emission at 615 nm and 665 nm) after 1 hr incubation at rt. A ratio was calculated (665/615) for each well and fitted to determine inhibition constant (IC50).

JMJD2C, sequence (Q9H3R0 2-372): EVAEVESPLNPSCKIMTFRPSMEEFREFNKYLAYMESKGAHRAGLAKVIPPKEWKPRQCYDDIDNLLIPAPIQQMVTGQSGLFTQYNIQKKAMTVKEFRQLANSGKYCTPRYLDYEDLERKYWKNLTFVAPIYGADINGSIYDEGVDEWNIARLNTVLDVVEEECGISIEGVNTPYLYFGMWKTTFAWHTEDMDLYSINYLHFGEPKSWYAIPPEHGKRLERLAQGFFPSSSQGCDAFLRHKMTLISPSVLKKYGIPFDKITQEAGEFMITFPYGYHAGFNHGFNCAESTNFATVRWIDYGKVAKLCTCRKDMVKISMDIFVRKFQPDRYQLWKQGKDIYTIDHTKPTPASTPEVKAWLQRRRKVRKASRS

Row | Substance | pIC50
1 | 3-{[(6-chloro-1,2,3,4-tetrahydronaphthalen-1-yl)methyl]amino}pyridine-4-carboxylic acid [Example 67] | 6.00 to 7.00
2 | 3-{[(6-fluoro-3,4-dihydro-2H-chromen-4-yl)methyl]amino}-pyridine-4-carboxylic acid [Example 65] | ≥ 7.00
3 | 3-{[(6-chloro-1-hydroxy-1,2,3,4-tetrahydronaphthalen-1-yl)methyl]amino}pyridine-4-carboxylic acid [Example 68] | 6.00 to 7.00

— US9725441B2, “Histone demethylase inhibitors” (CELGENE QUANTICEL RESEARCH, INC., priority 2012, dated 2017)
